Columns and labels:
[1] = Whole-body radiation dosimetry in mice, extrapolated to human; type: in vivo
Method: Male CD-1 mice were injected with [^11C]CPPC as described above for baseline studies and were euthanized at 10, 30, 45, 60, and 90 min after treatment. The various organs were quickly removed and percentage injected dose (% ID) per organ was determined. The human radiation dosimetry of [^11C]CPPC was extrapolated from the mouse biodistribution data using SAAM II (Simulation Analysis and Modeling II) and OLINDA/EXM software. The data were analyzed commercially (RADAR, Inc).
Radiation dosimetry for [^11C]CPPC was studied in fifteen male CD-1 mice (23-27 g) following our published procedure (Stabin M G, et al. (2005)). A solution of [^11C]CPPC in 0.2 ml of saline (7.4 MBq or 0.2 mCi) was injected as a bolus into the lateral tail vein, and groups of mice (n=3) were euthanized at 10, 30, 45, 60, and 90 min after the radiotracer injection. The lungs, heart, kidneys, liver, spleen, intestine, stomach, and brain were quickly removed and put on ice. One femur and samples of thigh muscle, bone marrow and blood were also collected. The organs were weighed, and the tissue radioactivity was measured with an automated gamma counter (LKB Wallac 1282 CompuGamma CS Universal Gamma Counter). The percent injected dose per organ (% ID/organ) was calculated by comparison with samples of a standard dilution of the initial dose. All measurements were corrected for decay. Resultant values of % ID/organ were fit using the SAAM II software (Foster D M (1998)). Time integrals of activity (Stabin M G and Siegel J A (2003)) were entered into the OLINDA/EXM software (Stabin M G, et al. (2005)), using the adult male model. […] The number of disintegrations in the remainder of body was assumed to be equal to 100% of the activity administered integrated to total decay of ^11C, minus the disintegrations in other body organs.

[2] = biological target: T1, CSF1R (Mus musculus, UniProt P09581); assay: Brain uptake in microglia-depleted vs control mice; type: in vivo; parameters: from tissue; host or cells: brain of living CD-1, C57BL/6J, transgenic APP (AD model), EAE and CSF1R KO mice; conditions: whole brain % SUV, 45 min, PLX3397 chow 290 mg/kg for 3 weeks
T1 sequence (P09581 20-977): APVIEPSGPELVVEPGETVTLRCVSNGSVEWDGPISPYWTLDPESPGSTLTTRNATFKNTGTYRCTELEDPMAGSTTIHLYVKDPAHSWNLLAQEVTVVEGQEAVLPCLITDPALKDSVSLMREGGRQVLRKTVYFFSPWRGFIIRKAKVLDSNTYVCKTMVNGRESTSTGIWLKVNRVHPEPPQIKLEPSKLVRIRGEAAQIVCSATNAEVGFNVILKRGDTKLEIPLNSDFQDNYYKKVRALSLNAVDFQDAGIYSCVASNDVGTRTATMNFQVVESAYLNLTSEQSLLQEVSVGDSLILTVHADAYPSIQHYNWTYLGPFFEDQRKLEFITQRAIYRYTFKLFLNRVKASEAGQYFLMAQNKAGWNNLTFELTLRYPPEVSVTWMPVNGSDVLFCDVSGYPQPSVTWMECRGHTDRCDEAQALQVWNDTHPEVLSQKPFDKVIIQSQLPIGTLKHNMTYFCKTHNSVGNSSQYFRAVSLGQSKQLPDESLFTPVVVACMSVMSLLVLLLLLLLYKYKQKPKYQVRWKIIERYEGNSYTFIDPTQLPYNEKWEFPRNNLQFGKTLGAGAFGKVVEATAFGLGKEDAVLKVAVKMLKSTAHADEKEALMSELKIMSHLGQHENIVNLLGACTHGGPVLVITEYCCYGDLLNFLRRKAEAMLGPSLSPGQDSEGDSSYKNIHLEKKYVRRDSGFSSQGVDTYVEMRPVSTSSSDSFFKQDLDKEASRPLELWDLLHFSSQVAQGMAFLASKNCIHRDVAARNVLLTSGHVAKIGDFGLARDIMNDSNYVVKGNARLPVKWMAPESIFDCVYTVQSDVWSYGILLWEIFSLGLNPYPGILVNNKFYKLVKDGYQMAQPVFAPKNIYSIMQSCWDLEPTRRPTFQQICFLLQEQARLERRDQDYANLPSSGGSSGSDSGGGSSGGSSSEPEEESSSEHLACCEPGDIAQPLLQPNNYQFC
Method: Male C57BL/6J mice (22-24 g) from Charles River Laboratories were purchased. […] The control C57BL/6J mice (5 animals) were fed with standard mouse chow for 3 weeks. On the last day of treatment, all animals were sacrificed by cervical dislocation at 45 min following injection of 5.0 MBq (0.135 mCi) [^11C]CPPC [specific radioactivity=475 GBq/μmol (12.8 Ci/μmol)] in 0.2 mL saline into a lateral tail vein. […] The outcome variables were calculated as % SUV.

[3] = Plasma free fraction, centrifree ultrafiltration; type: in vitro ADME; conditions: baboon plasma, not affected by LPS or LPS and blocking
[4] = biological target: T1, CSF1R
[5] = two exponential fit of % ID/organ

[11CH3]N1CCN(c2ccc(NC(=O)c3ccc(C#N)o3)c(N3CCCCC3)c2)CC1 [[^11C]CPPC, 5-cyano-N-(4-(4-[^11C]methylpiperazin-1-yl)-2-(piperidin-1-yl)phenyl)furan-2-carboxamide]
Activity observed in the intestines ([1]; CD-1 mice): ~35%
radiation burden to a human subject vs FDA limit ([1]; proposed dose of 740 MBq (20 mCi)): < 5 Rem
fitted metabolic model, Brain, first component % [1, 5]: 3.83%
fitted metabolic model, Brain, first component T-bio [1, 5]: 0.302 h
fitted metabolic model, Brain, second component % [1, 5]: 0.38%
fitted metabolic model, Brain, second component T-bio [1, 5]: ∞
fitted metabolic model, Heart, first component % [1, 5]: 1.00%
fitted metabolic model, Heart, first component T-bio [1, 5]: 0.272 h
fitted metabolic model, Heart, second component % [1, 5]: 0.14%
fitted metabolic model, Heart, second component T-bio [1, 5]: ∞
fitted metabolic model, Kidneys, first component % [1, 5]: 8.32%
fitted metabolic model, Kidneys, first component T-bio [1, 5]: 0.297 h
fitted metabolic model, Kidneys, second component % [1, 5]: 1.52%
fitted metabolic model, Kidneys, second component T-bio [1, 5]: ∞
fitted metabolic model, Liver, first component % [1, 5]: 97.6%
fitted metabolic model, Liver, first component T-bio [1, 5]: 0.764 h
fitted metabolic model, Liver, second component % [1, 5]: −100%
fitted metabolic model, Liver, second component T-bio [1, 5]: 0.335 h
fitted metabolic model, Lungs, first component % [1, 5]: 8.27%
fitted metabolic model, Lungs, first component T-bio [1, 5]: 0.159 h
fitted metabolic model, Lungs, second component % [1, 5]: 1.53%
fitted metabolic model, Lungs, second component T-bio [1, 5]: 2.27 h
fitted metabolic model, Spleen, first component % [1, 5]: 1.43%
fitted metabolic model, Spleen, first component T-bio [1, 5]: 0.823 h
fitted metabolic model, Spleen, second component % [1, 5]: −1.24%
fitted metabolic model, Spleen, second component T-bio [1, 5]: 0.145 h
reduction in radiotracer uptake in microglia-depleted mouse brain vs controls [2]: 14%
fraction unbound [3]: 0.0548 ± 0.0098
ex vivo binding potential (BPex vivo) ([4]; LPS mice, (LPS uptake-sham uptake)/sham uptake): 0.53-0.62
SUVR uptake in i.p.-LPS mice vs controls ([4]; experiments 2 and 3, blood-corrected, 45 min): significantly greater
blocking with nonradiolabeled CPPC, % SUV radioactivity (experiment 1) ([4]; i.p.-LPS mice, CPPC 1 mg/kg IP, no blood correction): did not cause a significant reduction
specific fraction of whole-brain binding ([4]; i.p.-LPS mice, blocking with CPPC and compound 8): more than 50%

Source: US20210290784A1, “POSITRON EMISSION TOMOGRAPHY (PET) RADIOTRACERS FOR IMAGING MACROPHAGE COLONY-STIMULATING FACTOR 1 RECEPTOR (CSF1R) IN NEUROINFLAMMATION” (The Johns Hopkins University, priority 2018, published 2021)
